These results are taken from patent US20230024442A1, “BIFUNCTIONAL COMPOUNDS FOR GRADING BTK VIA UBIQUITIN PROTEOSOME PATHWAY” (NURIX THERAPEUTICS, INC., priority 2019, published 2023).

Molecules are shown by their SMILES.

This experiment deals with T1, BTK (Homo sapiens, UniProt Q06187).
T1 construct: endogenous in cells; host or cells: Ramos (ATCC CRL-1596)
Nature of the experiment: Cellular BTK HTRF Assay (BTK levels in Ramos cells). It is filed as cell-based. The conditions noted are these: Ramos cells, 50,000 cells, incubated four hours at 37° C.; BTK levels by Cisbio Total-BTK HTRF relative to DMSO-treated cells. On the procedure:
Ramos (CRL-1596) cells were obtained from American Type Culture Collection and were grown in RPMI-1640 media (ATCC, 30-2001) supplemented with 10% heat-inactivated FBS (Corning Premium Fetal Bovine Serum from Fisher, MT35015CV).
Compounds of the present invention were added to 50,000 Ramos cells in round-bottom 96 well plates with a final DMSO concentration of […] and were incubated at 37° C. 5% CO2 for four hours. BTK levels were determined using Cisbio Total-BTK HTRF ([…] Time-Resolved Fluorescence) kit (63ADK064PEG) according to manufacturer's protocol. Briefly, cells were incubated in 1× supplied lysis buffer for 30 minutes. In an opaque white low volume 96 well plate (Cisbio, 66PL96005), cell lysate was combined with two different specific BTK antibodies, one conjugated with Eu^3+-Cryptate FRET donor and one conjugated with d2 FRET acceptor. Assay controls include wells containing cell lysate with only the Eu^3+-Cryptate FRET donor antibody and wells containing both HTRF antibodies and lysis buffer without cells or control lysate provided by Cisbio. HTRF ratio was calculated as (acceptor signal at 665 nm/donor signal at 620 nm)×10^4. Background HTRF levels were determined from the control well containing the donor, but no acceptor, antibody. Background HTRF levels were subtracted from all samples. Readouts were reported as HTRF levels relative to HTRF levels of DMSO-treated cells. Four-parameter non-linear regressions were performed in GraphPad Prism 7.02 to obtain DC50 values. DC50 values are provided in Table 7, wherein A<1 nM, 1 nM≤B≤10 nM, and 10 nM<C<1 μM.

T1 sequence (Q06187 whole entry): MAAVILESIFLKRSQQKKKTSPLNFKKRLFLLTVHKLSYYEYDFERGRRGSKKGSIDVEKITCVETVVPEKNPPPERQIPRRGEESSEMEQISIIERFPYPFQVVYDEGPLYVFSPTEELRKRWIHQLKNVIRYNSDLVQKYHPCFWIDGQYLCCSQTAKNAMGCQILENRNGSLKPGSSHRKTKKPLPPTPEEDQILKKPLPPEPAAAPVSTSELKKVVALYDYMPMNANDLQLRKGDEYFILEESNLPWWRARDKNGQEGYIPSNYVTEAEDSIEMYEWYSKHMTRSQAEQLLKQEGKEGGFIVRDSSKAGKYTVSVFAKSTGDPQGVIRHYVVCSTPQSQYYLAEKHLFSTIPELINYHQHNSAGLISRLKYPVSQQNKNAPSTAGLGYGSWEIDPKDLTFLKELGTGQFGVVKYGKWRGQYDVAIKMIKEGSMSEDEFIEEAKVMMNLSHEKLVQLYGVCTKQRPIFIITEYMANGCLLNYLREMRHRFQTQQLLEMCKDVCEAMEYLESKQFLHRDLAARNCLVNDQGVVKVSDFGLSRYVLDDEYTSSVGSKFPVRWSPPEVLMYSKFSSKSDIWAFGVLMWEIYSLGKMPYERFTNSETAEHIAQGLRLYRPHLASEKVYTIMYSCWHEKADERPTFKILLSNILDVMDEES

Turning to `C[C@H]1CN(C(=O)CCCN2CCN(c3cc4c(cc3F)C(=O)N(C3CCC(=O)NC3=O)C4=O)CC2)CCN1c1ccc(Nc2cc(-c3ccnc(N4CCn5c(cc6c5CC(C)(C)C6)C4=O)c3CO)cn(C)c2=O)nc1` (stereo partly shown) [Compound 58], the DC50 is 1 to 10 nM.
